Here are results for 1 compound from patent publication US10251891B2, “Aprepitant oral liquid formulations” (InnoPharma, Inc., priority 2014, dated 2019).

The nature of this data set: Solubility of aprepitant in water. The class given is physicochemical. The text has this:
Moreover, it should be recognized that the particle size of the active pharmaceutical ingredient may have important effects on the bioavailability of a formulation. Smaller particle sizes often have increased surface area and will thus dissolve faster than larger particles. However, decreasing the particle size will often increase agglomeration of the particles, and an increased surface area of smaller particles can result in faster degradation of the compound, e.g., due to oxidation and/or hydrolysis. The inventors have now found out that a fine particle size, and especially an average particle size between 0.250 and 0.400 micron, could achieve a desirable bioavailability (typically identical to that of commercially available solid oral aprepitant, EMEND). Such particle size may preferably be achieved using air-jet milling, ball milling, or mortar milling.

As to `C[C@@H](O[C@H]1OCCN(Cc2n[nH]c(=O)[nH]2)[C@H]1c1ccc(F)cc1)c1cc(C(F)(F)F)cc(C(F)(F)F)c1` [Aprepitant, 5-([(2R,3S)-2-((R)-1-[3,5-bis(trifluoromethyl)phenyl]ethoxy)-3-(4-fluoro-phenyl)morpholino]methyl)-1H-1,2,4-triazol-3(2H)-one], the solubility in water entry is “practically insoluble in water”.
